From patent US20070259060A1, “Formulations and Methods for Treating Breast Cancer with Morinda Citrifolia and Methylsulfonymethane” (priority 2003, published 2007)

Legend:
[1] = tested on: mammary gland tumorigenesis induced by estrogen; experiment: E2-induced mammary tumors (Example Four); assay type: in vivo, female ACI rats
Description: FIG. 2 is a graphical representation of the preventative effects of Morinda citrifolia-containing compounds on mammary gland tumorigenesis induced by estrogen in female ACI rats in accordance with the present invention.
Sixty five-week old female rats were divided into four groups of fifteen rats each and placed on regular diets. Another eight female rats served as age-matched controls. One group of experimental rats was given 5% placebo in drinking water, the second experimental group was given 5% Morinda citrifolia juice in drinking water, the third experimental group was given 5% Methylsulfonylmethane (“MSM”) in drinking water, and the fourth experimental group was given a combination of 5% Morinda citrifolia juice and 5% MSM in drinking water. Two weeks later, all animals were implanted subcutaneously with a 25 mg pellet containing 22.5 mg of 17β-estradiol (E2) mixed with 2.5 mg cholesterol. Each experimental group was provided with its respective formulation for ninety days following estrogen (E2) implantation. The age-matched control animals received a 25 mg cholesterol pellet implant.
All rats with an E2 implant in the placebo group had mammary gland tumors. One hundred percent (100%) of the rats in this group had three to seven tumors. Seventy-one percent (71%) of the rats in the Morinda citrifolia group had two to five tumors. Fifty-seven percent (57%) of the rats in the MSM group had one to four tumors. Forty-three percent (43%) of the rats in the combination group had zero to three tumors.
The average tumor area in the placebo group, Morinda citrifolia group, MSM group, and combination group at 180 days after E2 implantation were 17, 12, 10 and 6 mm^2, respectively. The survival rates of the control, placebo, Morinda citrifolia, MSM and combination groups one hundred and sixty days after E2 implantation were 100%, 0%, 47%, 73%, and 87%, respectively. The survival rates of each group at one hundred eighty days after E2 implantation was 100%, 0%, 0%, 20% and 60%, respectively. At two hundred days, the survival rates of each group were 100%, 0%, 0%, 0%, and 27%, respectively.

[2] = tested on: mammary carcinogenesis induced by DMBA; experiment: DMBA-induced mammary carcinogenesis, Morinda citrifolia/MSM combination (Example Five); assay type: in vivo, female SD rats
Description: In research supporting the present invention, the cancer preventive effects of Morinda citrifolia, MSM, and their combination at the initiation stage of multiple stage chemical carcinogenesis was investigated on a mammary breast carcinogenic animal model induced by DMBA in female SD rats. In the experiment, seventy-five female SD rats were divided into five groups: age-matched control, DMBA, 5% Morinda citrifolia+DMBA, 5% MSM+DMBA, and 5% Morinda citrifolia+5% MSM+DMBA groups. The experiment was started at the 35th postnatal day with water being given to the age-matched control group and the DMBA group, while 5% Morinda citrifolia, 5% MSM, and 5% Morinda citrifolia+5% MSM was supplied to the Morinda citrifolia, MSM, and Morinda citrifolia+MSM+DMBA groups. DMBA (25 mg/kg) was administered by mouth at the 50th postnatal day in the DMBA, Morinda citrifolia+DMBA, MSM+DMBA, and Morinda citrifolia+MSM+DMBA groups. Morinda citrifolia, MSM, Morinda citrifolia+MSM were continuously supplied for an additional 90 days after DMBA administration. All animals were sacrificed at the 9th month after DMBA treatment to examine the pathological changes in the mammary glands by light microscopy. […] Therefore, this synergistic combination regimen may contribute to human breast cancer prevention at the initiation stage of carcinogenesis. […]

[3] = 5% in drinking water from two weeks before to ninety days after E2 implantation

Question: Which results are given for `CS(C)(=O)=O` [MSM, methylsulfonylmethane]?
Answer: number of tumors per rat [1, 3]: one to four; percent of the rats with mammary tumors [1, 3]: 57%; body weight ([1]; 5% in drinking water, E2 implant): slight body weight loss; average tumor area ([1]; 180 days after E2 implantation): 10 mm^2; survival rate ([1]; one hundred and sixty days after E2 implantation): 73%; survival rate ([1]; one hundred eighty days after E2 implantation): 20%; survival rate ([1]; two hundred days after E2 implantation): 0%; mild hyperplasia ([2]; 5% each, sacrificed 9th month after DMBA): 75%; benign tumor or carcinoma in mammary glands by light microscopy ([2]; 5% from 35th postnatal day until 90 days after DMBA 25 mg/kg by mouth, sacrificed 9th month): No benign tumor or carcinoma was observed
